{"source": "patent US10004761B2", "about": "“Malodor neutralizing composition” (priority 2016, dated 2018)", "tested_on": "hyaluronidase Type IV-S, from bovine testes (Hyase)", "assay": "HA gelation consistency (Method III) in the presence of Hyase", "assay_type": "biochemical", "conditions": "for Consistency after 24 h incubation at 37° C.: HA 1% 2 mL", "experimental": "Method III (Viscosity of HA): HA at low concentrations (e.g., 1%) in aqueous solution forms a viscous colloidal hydrogel solution, which yields semi-solid gel particles at room temperature and a solid gel at 4° C.\nHA degradation was evaluated using Method III, as described hereinabove.\nHA state of gelation was studied in the presence of NAC and various HA-degrading enzymes, using the following Stock solutions:\nThe tested enzyme (50 μL) was placed in a tube, NAC (50 μL of the Stock solution, final concentration of about 3.3%) was added and the mixture was incubated for 2 hours at room temperature (23° C.). Then, 2 ml of HA 1% were added to each tube and tubes were further incubated at room temperature for additional 24 hours.\nIn a second set of experiments, NAC (50 μL of the Stock solution) was added to a tube containing 2 ml of HA 1%; and the tubes were incubated for 2 hours at room temperature. Then, the HA-degrading enzyme was added and tubes were incubated at room temperature for additional 24 hours. In control tubes 9 and 10 (containing only HA), 50 μL of water were added to achieve the same volume as the other tested tubes.\nIn another set of experiments, the effect of NAC powder, (at a final concentration of 20%), on HA gelation in the presence of Hyase or Chondroitinase ABC was tested. HA (2 ml of 1%), and the tested enzyme were incubated with and without 400 mg of NAC powder, at 4° C. and at 37° C.\nHA gelation in the presence of various concentrations of NAC and/or various concentrations of Hyase was further studies. […] The solutions were maintained for 24 hours at room temperature, and thereafter Hyase, at various concentrations, was added. Then the mixtures were incubated at room temperature. The enzyme was absent in the control tubes.\nIn another set of experiments, the effect of various NAC concentrations on gelation of HA 1% (2 mL in each tube) in the presence of Hyase (50 μL of Stock solution) following incubation at 37° C., was tested, using the same procedure as described hereinabove.", "data": [{"smiles": "CC(=O)N[C@@H](CS)C(=O)O", "note": "[NAC, N-acetyl L-cysteine]", "values": [{"measurement": "NAC concentration that fails to inhibit HA degradation", "setting": "HA 1%, Hyase 50 μL, 37° C. 24 h", "result": "lower than 1%"}, {"measurement": "NAC concentration range with the best effect", "setting": "HA 1%, Hyase 50 μL, at 37° C.", "result": "4-16%"}, {"measurement": "Consistency after 24 h incubation at 37° C.", "setting": "NAC 0.25% (5 mg), Hyase 50 μL", "result": "Fluid liquid (for a fluid liquid were in the range of 1-500 mPa S)"}, {"measurement": "Consistency after 24 h incubation at 37° C.", "setting": "NAC 0.5% (10 mg), Hyase 50 μL", "result": "Fluid liquid (for a fluid liquid were in the range of 1-500 mPa S)"}, {"measurement": "Consistency after 24 h incubation at 37° C.", "setting": "NAC 1.0% (20 mg), Hyase 50 μL", "result": "Viscous liquid (for a viscous liquid in the range of 1-10 Pa S)"}, {"measurement": "Consistency after 24 h incubation at 37° C.", "setting": "NAC 2.0% (40 mg), Hyase 50 μL", "result": "Viscous liquid (for a viscous liquid in the range of 1-10 Pa S)"}, {"measurement": "Consistency after 24 h incubation at 37° C.", "setting": "NAC 4.0% (80 mg), Hyase 50 μL", "result": "Semisolid (for a semi-solid in the range of 50-70 Pa S)"}, {"measurement": "Consistency after 24 h incubation at 37° C.", "setting": "NAC 8% (160 mg), Hyase 50 μL", "result": "Semisolid (for a semi-solid in the range of 50-70 Pa S)"}, {"measurement": "Consistency after 24 h incubation at 37° C.", "setting": "NAC 10% (200 mg), Hyase 50 μL", "result": "Semisolid (for a semi-solid in the range of 50-70 Pa S)"}, {"measurement": "Consistency after 24 h incubation at 37° C.", "setting": "NAC 20% (400 mg), Hyase 50 μL", "result": "Fluid liquid (for a fluid liquid were in the range of 1-500 mPa S)"}, {"measurement": "Consistency", "setting": "Table 2: Hyase 50 μL + NAC 50 μL (400 mM stock, about 3.3%) 2 h at 23° C., then HA 1% 2 mL, 24 h room temperature", "result": "Solid (for a solid the results were in the range of 80-100 Pa S and higher)"}, {"measurement": "Consistency", "setting": "Table 3: NAC 50 μL added to HA 1% 2 mL first (0.5% NAC final), 2 h, then Hyase 50 μL, 24 h room temperature", "result": "Fluid Liquid"}, {"measurement": "Consistency", "setting": "Table 4: NAC 400 mg dry powder (20% final), HA 2 cc of 1%, Hyase 50 μL, 4° C.", "result": "Semisolid (for a semi-solid in the range of 50-70 Pa S)"}, {"measurement": "Consistency", "setting": "Table 4: NAC 400 mg dry powder (20% final), HA 2 cc of 1%, Hyase 50 μL, 37° C., cell wraps: Viscous liquid", "result": "Viscous"}, {"measurement": "Consistency", "setting": "Table 5: NAC 5% (2 mL), HA 40 mg dry powder, Hyase 50 μL, room temperature, cell wraps: Solid, no crystals", "result": "Solid, no"}, {"measurement": "Consistency", "setting": "Table 5: NAC 10% (2 mL), HA 40 mg dry powder, Hyase 50 μL, room temperature, cell wraps: Solid, no crystals", "result": "Solid, no"}]}]}
